These results are taken from doi:10.1101/2020.08.16.252940v1 (biorxiv, 2020).

One assay addresses VDR (Homo sapiens, UniProt P11473). The following applies: antagonist mode; agonist and cell line not told.
Another assay has as its target VDR-LBD (Homo sapiens, UniProt P11473). Kind of assay: biochemical.

pIC50: −log10 of the molar value.

Chain of VDR (P11473 whole entry, the tested form may be a part): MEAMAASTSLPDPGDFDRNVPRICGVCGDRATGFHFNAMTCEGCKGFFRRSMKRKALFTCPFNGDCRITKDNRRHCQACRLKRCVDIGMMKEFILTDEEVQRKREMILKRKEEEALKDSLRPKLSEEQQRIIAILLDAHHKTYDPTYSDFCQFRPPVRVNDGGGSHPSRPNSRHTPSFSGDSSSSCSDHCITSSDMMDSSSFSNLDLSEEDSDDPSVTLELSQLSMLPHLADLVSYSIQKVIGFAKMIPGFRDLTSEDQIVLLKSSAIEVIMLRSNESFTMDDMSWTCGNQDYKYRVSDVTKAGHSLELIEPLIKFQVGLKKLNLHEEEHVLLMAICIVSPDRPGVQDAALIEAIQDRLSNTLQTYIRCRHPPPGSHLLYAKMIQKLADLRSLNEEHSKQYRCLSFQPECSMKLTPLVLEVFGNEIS
Chain of VDR-LBD (P11473 118-427 limits assumed): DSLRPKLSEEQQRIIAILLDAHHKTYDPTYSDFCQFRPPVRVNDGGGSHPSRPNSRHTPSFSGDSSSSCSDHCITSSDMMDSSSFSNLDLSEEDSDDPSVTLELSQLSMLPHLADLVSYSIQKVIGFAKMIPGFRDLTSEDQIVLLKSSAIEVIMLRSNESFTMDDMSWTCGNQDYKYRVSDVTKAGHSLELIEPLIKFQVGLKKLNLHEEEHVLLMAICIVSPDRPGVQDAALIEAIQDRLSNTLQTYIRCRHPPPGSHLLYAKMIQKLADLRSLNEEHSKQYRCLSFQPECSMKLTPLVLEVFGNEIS

In the case of `CC(C)CCC[C@@H](C)[C@H]1CC[C@H]2C3=CC=C4C[C@@H](O)CC[C@]4(C)[C@H]3CC[C@]12C` [7-dehydrocholesterol], the “inhibition only at concentrations above” value on VDR is > 100 µM.

What is called pIC50 is the negative decadic logarithm of the IC50, by convention in mol/L. Low readings indicate a large IC50, high ones a small IC50. `CC(C)CCC[C@@H](C)[C@H]1CC[C@@H]2[C@]1(C)CC[C@H]1[C@]23C=C[C@]2(C[C@@H](OC(=O)CBr)CC[C@]12C)n1c(=O)n(C)c(=O)n13` [MeTC7]: the pIC50 against VDR-LBD was 5.73.
